We go through five compounds from patent US6291199A, “Human phosphodiesterase type IVC, and its production and use” (Celltech Therapeutics Limited, priority 1994, dated 2001).

pIC50: −log10 of the molar value. Read-outs that look alike come from different tables or passages of the source.

In assay [1] the test system is PDE IV B. Conditions: read-out: IC50 for rolipram inhibition; literature; cited from earlier work.
Assay [2] relates to PDE IV D. As to conditions: read-out: IC50 for rolipram inhibition; literature; cited from earlier work.
The test system of assay [3] is PDE IVA. As to conditions: in situ, CHO + beta 2 adrenergic receptor + PDE IVA, 10 uM inhibitor.
Method: Transfected cells were harvested with non-enzymatic cell dissociation reagent (Sigma) washed three times and re-suspended in Dulbecco's phosphate buffered saline containing 0.1% BSA and 0.1% glucose (DPBS+). The cells were incubated with 10 uM inhibitor (or solvent control, 0.1% DMSO) in DPBS+for 10 min at 37° C. The cell suspension was stimulated with isoproterenol (0.001-1 uM) for 2 min. The cells were pelleted at 12000 g and resuspended in 400 uL of boiling assay buffer 1s (DuPont cAMP measurement kit). The samples were heated in a boiling water bath for 10 min and frozen before being assayed for cAMP using a commercial cAMP radioimmunoassay (DuPont).
Assay [4] has as its system PDE IV A. Conditions: read-out: IC50 for rolipram inhibition; literature; cited from earlier work.
For assay [5], the system named is PDE IVA. Put plainly: Inhibition of recombinant human PDE IVA (cAMP hydrolysis). Conditions: enzyme from CHO cell lysates. The assay is classed as biochemical.
The test system of assay [6] is recombinant PDE IV. Conditions: Torphy et al. 1992; cited from earlier work.
For assay [7], the system named is HL60 cells. Kind of assay: RT.PCR of PDE IV isoform mRNAs in Bt2 cAMP stimulated HL60 cells. The assay is classed as cell-based, human. As to conditions: HL-60 cells. The method, then:
(§1) To identify a source of gene C mRNA, a number of cell lines were assayed for isoform mRNAs by reverse transcription coupled to polymerase chain reaction (RT.PCR). Total RNA was prepared using RNAzol (Biogenesis) and polyA+ mRNA selected by affinity chromatography using oligodT cellulose. 50 ng of first strand cDNA prepared by reverse transcriptase was amplified with the following pairs of gene specific primers for 40 cycles using the conditions, 94° C. 1 min, 55° C. 1 min, 72° C. 3 min.
(§2) The results of RT.PCR using the human gene primers to detect isoform mRNAs in both human tissue culture cells and rat tissues confirms that PDE IV mRNAs are widely distributed though the apparent levels of each isoform mRNA varies. Gene C mRNA appears to be more abundant than A,B, or D in cells derived from dorsal root ganglia and testes in rat. This latter result is consistent with data reported previously by Swinnen et al. (1989) ibid.

For assay [8], the system named is SKNSH cells. Put plainly: RT.PCR of PDE IV isoform mRNAs in Bt2 cAMP stimulated SKNSH cells. As to conditions: SKN.SH cells. It counts as cell-based, human. The method, then:
as §1, §2

The test system of assay [9] is binding sites in the rodent forebrain tissue. Conditions: Schmiechen et al.; Kaulen et al. 1989; cited from earlier work.
In assay [10] the test system is PDE IVA. Put plainly: Inhibition of recombinant human PDE IVA (cAMP hydrolysis). The assay is classed as biochemical. The method, then: Isolation of cDNA Clones for Gene A
A partial cDNA for gene A was isolated by PCR from a cDNA library prepared from PMA stimulated U937 cells using published sequence information (Livi G. et al. (1990) ibid)). Subsequently a conserved region probe form this cDNA was used to isolate a full length cDNA clone from a human frontal cortex cDNA library by hybridisation and washing at moderate stringency (final wash 2×SSC, 0.5% SDS at 60° C.).
The full length gene for PDE IVA was introduced into pEE7 and pYES vectors for expression in COS and yeast cells respectively.
Recombinant PDE IV enzymes were produced in COS cells by transient expression as described by Whittle N. et al. [(1987) Prot. Engineering 1 499-505]. Briefly […] cells/ml were transfected with 10 ug of plasmid. After 3 days in culture cells were washed with PBS and lysed by brief sonciation in 50 mM TES buffer, pH 7.6, (N. tris[hydroxymethyl]methyl) 2-aminoethane sulphonic acid containing proteases inhibitors (50 uM leupeptin, 1 uM pepstatin, 1 um phenylmethylsulphonylfluoride, 2 uM benzamidine). The cell homogenate was centrifuged ×12000 g for 10 min. and assayed for PDE IV activity.
For expression of PDE IVA and C in yeast cells, the two genes were inserted into the vector pYES (InVitrogen) as either Hind3/Xba1 (gene A) or EcoR1 (gene C) fragments isolated from pDEFC17 and pDEU7 vectors respectively. The resulting plasmids were designated as pDEFC 32 and pDEU8 respectively. Yeast cells (B7542: alpha, ura-3,trp1+, Leu2delta, pep4: His3, prBdelta 1.6R can 1, gal) were transformed with pDEFC32 and pDEU8 vectors using the lithium acetate method (Ito H. et al. (1983) J.Bacteriol. 51 163-168). Ura3 positive prototrophs were isolated and grown at 30° C. to an OD600 =1.0 in minimal media containing 2% glucose and […] leucine. Cells were recovered by centrifugation, washed and resuspended at OD600 =0.5 in minimal media containing 2% galactose to induce PDE IV expression. At an OD600 =1.0 cells were harvested, washed and broken in TES buffer plus proteases (see above) by milling with glass beads (425-600 um) at 4° C. The homogenate was clarified by centrifugation at 100,000 g for 30 mins at 4° C.
Enzyme reactions were carried out at pH 7.6 in 50 mM TES buffer containing 10 mM MgCl2, 3',5' cAMP (0.1 uM ^3 H-labelled 0.74-1.1 TBq/mmol) 5'AMP (2.5 uM ^14 C, 1.85-2.2 GBq/mmol) for 30 min at 30° C. Sufficient enzyme preparation was added to hydrolyse not more than 20% of substrate under these conditions. […] Reactions were stopped by rapid inactivation of enzyme by addition of trifluoroacetic acid to a final concentration of 1%. Substrate and product of reaction were separated as described by Smith et al. [(1993) Analyt. Biochem. 214 355-357] and the [^3 H] 5'AMP product analysed by scintillation counting. Correction for losses of [^3 H] […] during separation was made by reference to [^14 C] 5'AMP included in the reaction mixture.

In assay [11] the test system is T lymphocytes. As to conditions: relative to other enantiomer; Sommer et al. 1995; cited from earlier work.
For assay [12], the system named is beta 2 adrenergic receptor. As to conditions: CHO cells expressing human beta2 adrenergic receptor; isoproterenol 0.001-1 uM, 2 min. The source says:
Isolation of Human Beta 2 Adrenergic Receptor Gene.
The human beta 2 adrenergic receptor gene (Kobilka B. et al. (1987) J.Biol. Chem. 262 7321-7327) was isolated from HL-60 cells genomic DNA by PCR using the following primers: […]
The plasmid was named pRO1 44.

For assay [13], the system named is asthma. As to conditions: in vivo; cited from earlier work.

With `COc1ccc(C2CNC(=O)C2)cc1OC1CCCC1` (racemic) [Rolipram], the pIC50 in assay [1] was 6.30 to 6.70; in assay [2], 6.30 to 6.70; in [4], 6.30 to 6.70; in assay [5] it was 6.54. In assay [3], the “reversal by rolipram of the prevention of cAMP accumulation, in words” value is “reversed”. Further, the “high affinity binding of rolipram, in words” value in [6] was “stereoselectivity for high affinity binding”.
On to `CCCC(=O)Nc1ncnc2c1ncn2[C@@H]1O[C@@H]2COP(=O)(O)O[C@H]2[C@H]1OC(=O)CCC` [Bt2 CAMP], for which the “levels of PDE IV isoform mRNAs, in words” value in [7] is “levels of C and D but not A and B are elevated”; in assay [8] it was “levels of C and D but not A and B are elevated”.
In the case of `COc1ccc([C@@H]2CNC(=O)C2)cc1OC1CCCC1` [R-rolipram], the “affinity for binding sites over S-rolipram, in words” value in [9] was “higher affinity”. The pIC50 in assay [10] (enzyme from COS cells, read-out: IC50, PDE IVA) was 6.53; in [10] (enzyme from yeast, read-out: IC50, Yeast, A), 6.53; in assay [5], 6.60. Moreover, the “effectiveness in suppression of TNF release” value in assay [11] is “approximately 50 times”.
On to `CC(C)NCC(O)c1ccc(O)c(O)c1` (stereo not drawn) [isopreterenol], for which the “cAMP levels, in words” value in [12] is “dose-dependent increase in cAMP levels”.
Take `Cn1c(=O)c2[nH]cnc2n(C)c1=O` [theophylline]: the “effect in asthma, in words” value in assay [13] is recorded as “has been shown to have a therapeutic effect”.

A word on the pIC50: it is the negative decadic logarithm of the IC50, by convention in mol/L.
